Assay results published in US20100146646A1, “METHOD OF MONITORING RETINOPATHY” (priority 2007, published 2010).
“Also recorded” adds a separate entry of the source.

Key:
[1] = system: transgenic GFAP-GFP mice (glia of optic disc and central retina); assay: In vivo scanning laser opthalmoscope (SLO) imaging of GFP fluorescence in the optic disc after neurotoxicant injection; parameters: species or system mouse; conditions: for time point of maximum GFP fluorescence around the fringe of the optic disc: adult GFAP-GFP mice, ip neurotoxicant, SLO imaging over 14 days; for retinal gliosis: neurotoxicant-treated GFAP-GFP mice, summary statement
Excerpt: Transgenic GFAP-GFP mice: The generation and genotyping of the transgenic GFAP-GFP mice were done as previously described (Zhuo et al., 1997). Adult mice (8-10 weeks old) in the FVB/N background were used in the present study. Animal husbandry was provided by National University of Singapore animal holding unit. The experimental protocol covering the current study was approved by the Institutional Animal Care and Use Committee.
(§1) The test compounds 2′-CH3-MPTP (M103), KA (K0250) and IDPN (317306) were purchased from Sigma-Aldrich (St. Louis, Mo., USA). Each mouse in the treatment group received either 4 intraperitoneal (ip) injections of 2′-CH3-MPTP (15 mg/kg in saline, ip, once every 2 hours), a single injection of KA (25 mg/kg in saline, ip) or 3 injections of IDPN (500 mg/kg, ip, once daily). For each neurotoxicant-treated group (n=3), saline was used as a vehicle for the control group (n=3). Retinal imaging was subsequently performed over a period of 14 days.
Preparation of Animals: Mice were Anaesthetized by Ip Injections with 0.15 ml/10 g body weight of Avertin (1.5% 2,2,2-tribromoethanol; T48402) purchased from Sigma-Aldrich (St. Louis, Mo., USA), and their pupils dilated with a drop of 0.5% Cyclogyl® sterile ophthalmic solution (cyclopentolate hydrochloride, Alcon®, Puurs, Belgium). Custom-made PMMA hard contact lenses (from Cantor & Nissel (Northamptonshire, UK) were used to correct optical aberration and to avoid dehydration of the mouse eyes. Careful examination by an eye specialist before scanning laser opthalmoscope imaging ruled out the presence of any corneal or lens opacities.
Scanning laser opthalmoscope (SLO) imaging: For the work described here, the second version of Heidelberg Retina Angiograph (HRA II) scanning laser opthalmoscope (Heidelberg Engineering, Dossenheim, Germany) modified for use on mice was employed. The scanning laser opthalmoscope (SLO) is a fundus imaging technique based on the scanning of the fundus with a laser beam from a point source, while the reflected light is detected by a photomultiplier. Incident and reflected light follow a co-axial path. Therefore, more light can pass through small eyes than with conventional fundus cameras. Several reports of SLO imaging in rats (Hossain et al., 1998; Khoobehi and Peyman, 1999; Cordeiro et al., 2004; Genevois et al., 2004) and mice (Jaissle et al., 2001; Xu et al., 2003) have been published, with the latest study by (Seeliger et al., 2005) and (Paques et al., 2006) in evaluating mouse fundus with the first version of the HRA (or HRA I). The HRA II features the two Argon lasers in the short wavelength range (488 nm and 514 nm) and two infrared diode lasers in the long wavelength range (795 nm and 830 nm). The 488 and 795 nm lasers are used for fluorescein and indocyanine green angiography respectively. Appropriate barrier filters of 500 nm and 800 nm, respectively, remove the reflected light with unchanged wavelength and allow only the light emitted by the dye upon stimulation to pass through. The finest definition is 768×768 pixels at an optical resolution of 10 μm/pixel and coupled with three fields of view (nominal values of 15°, 20° and 30°). The focus is adjustable over a +12/−12 diopters range using step increments of 0.25 diopters. A video acquisition mode (48 ms to 96 ms per image) is available. Within any area of interest, a stack of tomographic images (z-scans) up to a maximum depth of 8 mm can be automatically acquired.

[2] = system: transgenic GFAP-GFP mice (hippocampus, substantia nigra, striatum, olfactory bulb); assay: Brain cryosections: transgenic GFP and GFAP immunohistochemistry (gliosis); type: in vivo, mouse
Description: as §1
Retina wholemount and immunohistochemistry (IHC): After perfusing the mice with 1×PBS, followed by 4% fresh paraformaldehyde (in 1×PBS, pH 7.4), the brains were harvested and the eyes enucleated. The eyes were fixed immediately in 4% paraformaldehyde overnight at 4° C., after which they were dissected at the equator with the lens and vitreous removed. The retina was then dissected free from the choroid and sclera and whole mounted on a glass slide. Whole retina was mounted with Vectorshield mounting medium for fluorescence (Vector Laboratories, Inc., Burlingame, Calif., USA; H1000). The brains were first fixed in 4% paraformaldehyde for 4 hr at 4° C. and soaked in 30% sucrose at 4° C. overnight. The processed brain tissues were embedded in OTC freezing medium for sectioning on a cryostat (Leica Microsystems, Nussloch GmbH; CM-3050S). Coronal cryosections (10 μm) of the hippocampus (bregma −1.94 mm, interaural 1.86 mm), SNpc (bregma −3.16 mm, interaural 0.64 mm) and olfactory bulb (bregma 4.28 mm, interaural 8.08 mm) according to the Atlas of Mouse Brain (Franklin and Paxinos, 2001), together with the retina wholemounts were used for IHC using rabbit polyclonal antibodies (in 1:200 dilution) against GFAP (Dako, Z0334). Sections of the SNpc and striatum (bregma 0.62 mm, interaural 4.42 mm) were used for IHC using rabbit polyclonal antibodies (in 1:200 dilution) against tyrosine hydroxylase (TH; Chemicon, Calif., USA; Ab-152). The bound primary antibodies on the tissue sections were stained with a goat IgG conjugated to Texas-red (Abeam, Ab7088) at 1:100 dilution for 2 hr at room temperature, and visualized using confocal microscopy (LSM 510 META, Carl Zeiss Microimaging GmbH, Jena Germany).

retinal Müller cells = conditions: injected into the vitreous of the eye; cited from earlier work
[3] = system: transgenic GFAP-GFP mice (whole-mount retina); assay: Retina whole-mount: transgenic GFP and GFAP immunohistochemistry; type: in vivo, mouse; conditions: 7 days after a single ip injection (25 mg/kg), vs saline
Description: as §1
(§2) Retina wholemount and immunohistochemistry (IHC): After perfusing the mice with 1×PBS, followed by 4% fresh paraformaldehyde (in 1×PBS, pH 7.4), the brains were harvested and the eyes enucleated. The eyes were fixed immediately in 4% paraformaldehyde overnight at 4° C., after which they were dissected at the equator with the lens and vitreous removed. The retina was then dissected free from the choroid and sclera and whole mounted on a glass slide. Whole retina was mounted with Vectorshield mounting medium for fluorescence (Vector Laboratories, Inc., Burlingame, Calif., USA; H1000). The brains were first fixed in 4% paraformaldehyde for 4 hr at 4° C. and soaked in 30% sucrose at 4° C. overnight. The processed brain tissues were embedded in OTC freezing medium for sectioning on a cryostat (Leica Microsystems, Nussloch GmbH; CM-3050S). […]

[4] = system: neuronal and glial cells in the retina; conditions: cited from earlier work
[5] = system: transgenic GFAP-GFP mice (SNpc and striatum); assay: Brain cryosections: tyrosine hydroxylase (TH) immunohistochemistry; type: in vivo, mouse; conditions: a day after administration, vs saline
Description: as §1, §2

[6] = 7 days after administration, vs saline
[7] = a day after administration, vs saline

## C=C(C)[C@H]1CN[C@H](C(=O)O)[C@H]1CC(=O)O [KA, kainic acid]
[1]
  time point of maximum GFP fluorescence around the fringe of the optic disc: 7 days
  retinal gliosis: elicits retinal gliosis
[2]; 7 days after administration, compared to saline control
  level of GFP and GFAP expression in the entire hippocampus area (CA1, CA3, dentate gyrus): extremely high level of GFP and GFAP expression
[2]; [6]
  gliosis in astrocytes of the hippocampus (GFP and GFAP): severe reactive gliosis
Retinal Müller cells
  GFAP in the retinal Müller cells: up-regulation of GFAP
[3]
  gliosis in the nerve fiber layer (NFL) of whole-mount retina (transgenic GFP and endogenous GFAP): severe gliosis

## CN1CC=C(c2ccccc2)CC1 [MPTP, 1-methyl-4-phenyl-1,2,3,6-tetrahydropyrine]
[4]; several days after injection
  GFAP immunoreactivity of the glial cells of the retina: increased
[4]; within a week after systemic injection in mice
  microglia in the inner outer retina: microglia activation was observed

## Cc1ccccc1C1=CCN(C)CC1 [2′-CH3-MPTP, 1-methyl-4(2′-methylphenyl)-1,2,3,6-tetrahydropyridine]
[1]
  time point of maximum GFP fluorescence around the fringe of the optic disc: 1 days
  retinal gliosis: elicits retinal gliosis
[1]; after administration of the neurotoxicant (4 x 15 mg/kg ip)
  time of maximal increase in GFP expression in the optic disc: 24 h
[5]
  TH-immunoreactive midbrain dopaminergic neurons in the SNpc: observable tyrosine hydroxylase (TH) depletion; also recorded: marked depletion
  level of TH expression in the striatum: no change in TH expression could be visually observed; also recorded: no detectable changes
[2]; [7]
  GFP / gliosis in striatal astrocytes: acute gliosis; also recorded: substantial GFP increase
  gliosis in the substantia nigra: gliosis occurs extensively
[2]; a day after systemic administration
  GFP and GFAP expression in activated astrocytes of the brain: an increase in GFP and to a lesser extent, GFAP expression

## N#CCCNCCC#N [IDPN, 3,3-iminodipropionitrile]
[1]
  time point of maximum GFP fluorescence around the fringe of the optic disc: 7 days
  retinal gliosis: elicits retinal gliosis
[2]; 7 days after administration (3 x 500 mg/kg ip), vs saline
  gliosis / GFP-positive astrocytes co-localizing with GFAP-immunoreactive cells in the glomerular layer (GL) of the olfactory bulb: acute gliosis; also recorded: markedly more GFP-positive astrocytes
[2]; [6]
  GFAP-positive cells in the granular cell layer (GCL) of the olfactory bulb: strong increase of GFAP-positive cells
